Experiments:
[1] = healthy person, intake of oxidized coenzyme Q10; cited from earlier work
[2] = Reduced coenzyme Q10 ratio in plasma after oral administration, 5-week-old SD rats (Reference Example 1); format: in vivo
Excerpt: (§1) The ratio of the reduced form to the total coenzyme Q10 is generally determined by a method comprising quantifying oxidized coenzyme Q10 and reduced coenzyme Q10 in a sample by high performance liquid chromatography (HPLC) using an UV detector and calculating the ratio from the volume ratio obtained, or a method comprising using an HPLC system incorporated with an electrochemical detector for calculating the ratio of oxidized coenzyme Q10 and reduced coenzyme Q10 from the peak area. […] In the present invention, all the reduced coenzyme Q10 ratios are determined by the HPLC system incorporated with an electrochemical detector.
(§2) In these Examples, the ratio of reduced coenzyme Q10 to the total coenzyme Q10 was determined using the HPLC system incorporated with an electrochemical detector (product of Shiseido Co., Ltd.) and a reduction column (product of Shiseido Co., Ltd.).
10 SD rats (5-week-old, males) were divided into 2 groups each consisted of 5 rats so that each group had the same average body weight value. […] Then, the reduced coenzyme Q10 ratio in plasma was determined with time lapses. […] The concentration of reduced coenzyme Q10 and oxidized coenzyme Q10 in the obtained plasma was quantified using HPLC in order to determine the reduced coenzyme Q10 ratio.

[3] = Reduced coenzyme Q10 ratio in plasma after oral administration, 54-week-old SD rats (Example 1); format: in vivo
Excerpt: (§3) The ratio of the reduced form to the total coenzyme Q10 is generally determined by a method comprising quantifying oxidized coenzyme Q10 and reduced coenzyme Q10 in a sample by high performance liquid chromatography (HPLC) using an UV detector and calculating the ratio from the volume ratio obtained, or a method comprising using an HPLC system incorporated with an electrochemical detector for calculating the ratio of oxidized coenzyme Q10 and reduced coenzyme Q10 from the peak area. The HPLC system incorporated with an electrochemical detector makes it possible to specifically determine oxidation-reduction substances and has high sensitivity, and thus is highly useful for determining trace amount of reduced coenzyme Q10 in the living body or samples. In the present invention, all the reduced coenzyme Q10 ratios are determined by the HPLC system incorporated with an electrochemical detector.
as §2
(§4) 10 SD rats (54-week-old, males) were divided into 2 groups each consisted of 5 rats so that each group had the same average body weight value. To one group, a solution of reduced coenzyme Q10 in soybean oil (containing about 1% of oxidized coenzyme Q10) was orally administered, and to the other group, a solution of oxidized coenzyme Q10 in soybean oil was orally administered, each at the dose of 100 mg/kg body weight in coenzyme Q10 equivalent. Then, the reduced coenzyme Q10 ratio in plasma was determined with time lapses. Blood was collected after 1, 2, 4 and 8 hours of oral administration, and centrifuged to obtain plasma. The concentration of reduced coenzyme Q10 and oxidized coenzyme Q10 in the obtained plasma was quantified using HPLC in order to determine the ratio of the reduced form.

[4] = Reduced coenzyme Q10 ratio in plasma after oral administration, 62-week-old SD rats (Example 2); format: in vivo
Excerpt: as §3, §2
as §4, with “SD rats (62-week-old, males) were” for “SD rats (54-week-old, males) were”, “reduced coenzyme Q10in soybean oil” for “reduced coenzyme Q10 in soybean oil”

[5] = Reduced coenzyme Q10 ratio in plasma of healthy aged people fed soft capsules (Example 3); format: in vivo, human; conditions: healthy aged people 64 to 77 years old, two soft capsules (100 mg of coenzyme Q10), since 2 hours after administration
Excerpt: as §1, §2
Two soft capsules obtained in Preparation Example 5 and Comparative Preparation Example 1 (containing 100 mg of coenzyme Q10) were fed to two groups of healthy aged people (20 male and female individuals in each group, age: 64 to 77 years old), and the effect on the reduced coenzyme Q10 ratio in plasma was evaluated.

[6] = male, SD, rat, in vivo, po, 100 mg/kg, 1 h
[7] = male, SD, rat, in vivo, po, 100 mg/kg, 8 h

difference in the reduced coenzyme Q10 ratio in plasma between administration of reduced and oxidized coenzyme Q10 ([2]; rat, in vivo, po, 100 mg/kg) | ratio of the reduced form of coenzyme Q10 in plasma [3, 6] | ratio of the reduced form of coenzyme Q10 in plasma [3, 7] | ratio of the reduced form of coenzyme Q10 in plasma [4, 6] | ratio of the reduced form of coenzyme Q10 in plasma [4, 7] | difference in the reduced coenzyme Q10 ratio in plasma between administration of reduced and oxidized coenzyme Q10 ([2]; 5-week-old male SD rats, 100 mg/kg oral in soybean oil, after 2 hours or later of administration) | ratio of the reduced form of coenzyme Q10 in plasma ([3]; 54-week-old male SD rats, 100 mg/kg oral in soybean oil, over 1-8 hours) | ratio of reduced coenzyme Q10 to the total coenzyme Q10 in plasma, time course [5] | ratio of the reduced form of coenzyme Q10 in plasma ([4]; 62-week-old male SD rats, 100 mg/kg oral in soybean oil, over 1-8 hours) | SMILES | amount of reduced coenzyme Q10 in plasma [1] | ratio of reduced coenzyme Q10 to oxidized coenzyme Q10 in plasma [1]
almost no difference | about 76% | about 87% | about 74% | about 78% |  |  |  |  | COC1=C(OC)C(=O)C(C/C=C(\C)CCC=C(C)CCC=C(C)CCC=C(C)CCC=C(C)CCC=C(C)CCC=C(C)CCC=C(C)CCC=C(C)CCC=C(C)C)=C(C)C1=O [oxidized coenzyme Q10] | increased | unchanged
 |  |  |  |  | almost no difference | around 90% | increased with the lapse of time | around 90% | COc1c(O)c(C)c(C/C=C(\C)CC/C=C(\C)CC/C=C(\C)CC/C=C(\C)CC/C=C(\C)CC/C=C(\C)CC/C=C(\C)CC/C=C(\C)CC/C=C(\C)CCC=C(C)C)c(O)c1OC [reduced coenzyme Q10] |  | 

From US20080254016A1, “Composition For Increasing Anti-Oxidation Activity In Blood” (Kaneka Corporation, priority 2005, published 2008)
